Results as given in patent publication US7074778B2, “Asthma associated factors as targets for treating atopic allergies including asthma and related disorders” (Genaera Corporation, priority 1999, dated 2006).
Converted amounts (≈) assume the structure as drawn. Like-named read-outs stand apart in the source and are kept apart here.

How the values were obtained:
[1] = system: mice sensitized to antigen; experiment: Airway hyperresponsiveness in mice sensitized to Aspergillus fumigatus antigen (APTI); type: in vivo, mouse
Experimental: (§1) DBA2, C57BL6 or B6D2F1 mice, five to six weeks of age, were obtained from the National Cancer Institute or Jackson Laboratories. Animals were housed in high-efficiency particulate filtered air laminar flow hoods in a virus and antigen free facility and allowed free access to pelleted rodent chow and water for three to seven days prior to experimental manipulation. The animal facilities were maintained at 22° C. and the light:dark cycle is automatically controlled (10:14 hour cycle).
(§2) Phenotyping and efficacy of pretreatment. Animals either received no pretreatment or were sensitized by nasal aspiration of Aspergillus fumigatus antigen to assess the effect on bronchial hyperresponsiveness, bronchoalveolar lavage and serum IgE. Mice were challenged with Aspergillus or saline intranasally (Monday, Wednesday and Friday for three weeks) and phenotyped twenty-four hours after the last dose. The effect of pretreatment by aminosteroids was used to assess the effect of down-regulating the IL-9 pathway in mice. To determine the bronchoconstrictor response, respiratory system pressure was measured at the trachea and recorded before and during exposure to the drug. Mice were anesthetized and instrumented as previously described. (Kleeberger et al., (1990) Am. J. Physiol. 258, L313–320; Levitt et al., (1995) Clin. Exp. Allergy 25, 61–63; Ewart et al., (1995) J. Appl. Physiol. 79, 560–566). Airway responsiveness was measured to one or more of the following: 5-hydroxytryptamine, acetylcholine, atracurium or a substance-P analogue. A simple and repeatable measure of the change in peak inspiratory pressure following bronchoconstrictor challenge was used which has been termed the Airway Pressure Time Index (APTI). The APTI was assessed by the change in peak respiratory pressure integrated from the time of injection until the peak pressure returns to baseline or plateau.
(§3) Active compounds identified in vitro were tested in vivo for their ability to suppress airway hyperresponsiveness, lung eosinophilia and serum Ig levels using assays described above. […]

[2] = system: total serum IgG1, IgG2a and IgE; experiment: Serum Ig ELISA in sensitized DBA2J mice; type: in vivo, mouse
Experimental: Samples were centrifuged to separate cells and serum was collected and used to measure total IgG1, IgG2a and IgE levels. Samples not measured immediately were frozen at −20° C.
Serum Igs were measured using an ELISA antibody-sandwich assay. Microtiter plates were coated, 50 μl per well, with rat anti-murine IgG1, IgG2a or IgE antibody (Southern Biotechnology and PharMingen) at a concentration of 2.5 μg/ml in coating buffer of sodium carbonate-sodium bicarbonate with sodium azide. Plates were covered with plastic wrap and incubated at 4° C. for sixteen hours. The plates were washed three times with a wash buffer of 0.05% Tween-20 in phosphate-buffered saline, incubating for five minutes for each wash. Blocking of nonspecific binding sites was accomplished by adding 200 μl per well 5% bovine serum albumin in phosphate-buffered saline, covering with plastic wrap and incubating for two hours at 37° C. After washing three times with wash buffer, duplicate 50 μll test samples were added to the wells. Test samples were assayed after being diluted 1:10, 1:50 and 1:100 with 5% bovine serum albumin in wash buffer. In addition to the test samples, a set of Ig standards (PharMingen) at various liner concentrations in 5% bovine serum albumin in wash buffer, were assayed to generate a standard curve. A blank of no sample or standard was used to zero the plate reader (background). After adding samples and standards, the plate was covered with plastic wrap and incubated for two hours at room temperature. After washing three times with wash buffer, 50 μl of secondary antibody rat anti-murine IgG1, IgG2a or IgE-horseradish peroxidase conjugate was added at a concentration of 250 ng/ml in 5% bovine serum albumin in wash buffer. […] After five to ten minutes the reaction was stopped with 50 μl of 12.5% sulfuric acid and absorbance was measured at 490 nm on a Dynatech® MR5000 plate reader. A standard curve was constructed from the standards with antigen concentration on the x axis (log scale) and absorbance on the y axis (linear scale). […]

[3] = system: mitogen or antigen stimulated murine or human lymphocytes; experiment: Lymphocyte aggregation assay (PHA-PMA mitogen stimulated); type: cell-based; settings: Homo sapiens, Lymphocyte, 12 h, aggregates of greater than 100 cells, PHA-PMA stimulation; read-out: Aggregation Assay Minimum Effective Conc.
Experimental: (§4) Immunomodulatory 3-aminosteroids (FIGS. 3–7 and Table I) were identified in vitro based on their ability to inhibit homo- or hetero-typic aggregation and subsequent proliferation of mitogen or antigen stimulated murine or human lymphocytes. Human or mouse lymphocytes were isolated from peripheral blood by Ficoll-Hypaque as described (Stoeckert et al., (1990) Exp. Hematol. 18. 1164–1170). For mitogen stimulation, 1×10^5 cells per well were plated in varying amounts of 3-aminosteroid compounds and assayed for aggregation and proliferation after twelve hours of stimulation by PHA-PMA mitogens. […] For antigen stimulation, lymphocytes were isolated from BALBc mice which had been sensitized to Aspergillus fumigatus antigen for three weeks and plated at 1×10^5 cells per well with or without 100 units of Aspergillus fulmigatus antigen. Cells were grown for three days and then scored for cellular aggregates and proliferation as described above in the presence or absence of increasing amounts of Compound-B or analogue compounds. […] Similar results were obtained in assays using antigen mediated response to compounds (not shown). […] All of the active compounds shown in Table I as well as rational modifications of these compounds as depicted in FIGS. 8–10 are embodiments of the invention

[4] = system: eosinophils; experiment: Bronchoalveolar lavage cellular analysis (eosinophilia) in sensitized mice; type: in vivo, mouse; settings: FIG. 16
Description: as §2, with “plateau. […]” for “plateau.”

[5] = system: IL-9; experiment: IL-9 expression in mitogen-stimulated lymphocytes (RT-PCR); type: cell-based, human; settings: FIG. 13
Experimental: Total cellular RNA was extracted after 24 hours from cultured PBMC, murine spleen cells and M07e cells using RNA PCR corekit (Perkin-Elmer, Foster City Calif.) according to manufacturer's instructions. One microgram of RNA from each source was denatured for five minutes at 65° C. and then reverse transcribed into cDNA using a 20 μl reaction mixture containing 50 units of MLV Reverse Transcriptase, one unit per μl RNAse inhibitor. […] oligo d(T)16 primer, 1 mM each dATP, dCTP, dGTP, dTTP, 50 mM KCl, 10 mM Tris-HCl, pH 7.0, 25 mM MgCl2. The reaction mixture was pipetted into thermocycler tubes, placed in a PCR thermal cycler and subjected to one cycle (fifteen minutes at 42° C., five minutes at 99° C. and five minutes at 4° C.). A mock reverse transcription reaction was used as a negative control. […]
Immunomodulatory 3-aminosteroids (FIGS. 3–7 and Table I) were identified in vitro based on their ability to inhibit homo- or hetero-typic aggregation and subsequent proliferation of mitogen or antigen stimulated murine or human lymphocytes. […] Cells were grown for three days and then scored for cellular aggregates and proliferation as described above in the presence or absence of increasing amounts of Compound-B or analogue compounds. […]

[6] = system: mitogen or antigen stimulated murine or human lymphocytes; experiment: PBMC proliferation assay (tritiated thymidine incorporation); type: cell-based; settings: Homo sapiens, Lymphocyte
Experimental: as §4

[7] = rat, in vivo, 1 mg/kg/day
Experimental: To determine the mechanism by which 3-aminosteroid compounds function to suppress the asthmatic response to allergen, comparative physiologic assays were carried out utilizing the extensively studied Sprague-Dawley rat model (Scaccianoce et al., (1995) Neuroendocrinology 62, 32–38; Hatzinger et al., (1996) Neuroendocrinology 64, 349–356). Animals were administered 1 mg/kg/day of either the corticosteroid Dexamethasone or Compound-B and analyzed at ten hours for corticosterone and ACTH. […] Similar results were found for ACTH levels (>100 fold) supporting the finding that Compound-B is acting by a different mechanism from dexamethasone.

[8] = system: D2 naive mice; experiment: Bronchial hyperresponsiveness in D2 naive mice (APTI); type: in vivo, mouse; settings: FIG. 14
Experimental: as §1, §2, §3

[9] = Solubility during work-up; type: physicochemical; settings: 10% acetonitrile/water, acidified with TFA
Experimental: The reductive aminations were accomplished by similar procedures. The sterol (500 mg for, […] for compounds 7 and 8) was dissolved in 2-propanol (25 mL). Ethylenediamine (1 mL) was added to the flask. The 3-oxo sterol and ethylenediamine were allowed to stir at room temperature for approximately four hours. Sodium cyanoborohydride (250 mg for compound 6 and 100 mg for compounds 7 and 8) was dissolved in 2-propanol (2 mL) and acetic acid (1 mL). The sodium cyanoborohydride solution was added to the reaction flask after evolution of gas had almost ceased (approximately five minutes). In all cases the reaction was complete before the first TLC was taken (less than five minutes). The work-up was the same for all analogues, solution was made basic (pH 10–11) by the addition of carbonate buffer. The aqueous layer was repeatedly extracted with chloroform. The chloroform was removed in vacuo and the crude 3-aminosteroid was dissolved in 10% acetonitrile/water, acidified with TFA. The solubility of compound I was very poor. The solutions were passed through a […] Gelman vacu-cap filter. The 3-aminosteroid isomers were separated by reverse phase chromatography on C18 (Dynamax, 300, 8 μM, 21.6 mm ID, 25 cm/L) using a gradient of acetonitrile in water with 0.1% TFA throughout. […]

[10] = 28 day tolerance study in Sprague-Dawley rats (weight, spleen); type: in vivo, rat; settings: drug administered for 28 days
[11] = DBA2J mice sensitized to antigen, FIG. 15
[12] = FIG. 11 and FIG. 12, mitogen-stimulated lymphocytes, read-out: IC50 for suppression of lymphocyte aggregation and proliferation

For `COC(=O)CC[C@@H](C)C1CCC2C3C[C@@H](O)[C@H]4C[C@@H](NCCN)CC[C@]4(C)C3CC[C@@]21C` (stereo partly shown) [Compound-A], the “block of airway hyperresponsiveness” value ([1]; BALBc mice, 2.5 mg/kg administered twice per week, FIG. 19) was “able to block airway hyperresponsiveness”, the “block of airway hyperresponsiveness” value [1, 11] was “able to block airway hyperresponsiveness” and the “efficacy compared with dexamethasone” value [1, 11] was “more efficacious than the commonly used corticosteroid, dexamethasone”. The “serum IgG2a (TH1 associated immunoglobulin)” value [2] was “not”, the “total serum IgG1” value ([2]; FIG. 17) was “suppressed” and the “total serum IgE” value ([2]; FIG. 18) was “suppressed”. For the same molecule, the minimal effective concentration [3] was 1 µg/mL, the “eosinophilia (eosinophils in bronchoalveolar lavage)” value [4] was “eosinophils were the particular cell type affected” and the “expression of IL-9 in mitogen-stimulated lymphocytes” value [5] was “block the expression of IL-9”. For the same molecule, the IC50 [6, 12] was 0.5 µg/mL (≈ 1.11 µM).
In the case of `COC(=O)CC[C@@H](C)C1CCC2C3C(CC[C@@]21C)[C@@]1(C)CC[C@H](NCCN)C[C@H]1C[C@H]3O` (stereo partly shown) [Compound-B], the “effect on plasma corticosterone” value [7] is reported as “no significant effect”, the “effective dose compared with Compound-D” value [8] is reported as “effective at a lower dose than Compound-D” and the “suppression of bronchial hyperresponsiveness” value ([8]; ip) is reported as “effective in suppressing bronchial hyperresponsiveness”. The minimal effective concentration [3] was 10 µg/mL, the “expression of IL-9 in mitogen-stimulated lymphocytes” value [5] was “block the expression of IL-9” and the IC50 [6, 12] was 2.5 µg/mL (≈ 5.57 µM).
In the case of `C[C@@H](CNC(=O)N1CCCC1)C1CCC2C3CC[C@@H]4C[C@@H](NCCN)CC[C@]4(C)C3CC[C@@]21C` (stereo partly shown) [Compound-I], the solubility [9] is reported as “very poor” and the IC50 ([6]; tritiated thymidine incorporation, read-out: PBMC Proliferation ASSAY IC50) is reported as 0.23 µg/mL (≈ 0.487 µM).
In the case of `C[C@@H]1C[C@H]2[C@@H]3CCC4=CC(=O)C=C[C@]4(C)[C@@]3(F)[C@@H](O)C[C@]2(C)[C@@]1(O)C(=O)CO` [dexamethasone], the “suppression of ACTH levels” value [7] is reported as > 100 fold, the “suppression of absolute levels of plasma corticosterone” value [7] is reported as > 450 fold and the body weight [10] is reported as “weight loss”. The “spleen (splenic atrophy)” value ([10]; FIG. 21) was “splenic atrophy”.
